Source: patent US20240150302A1, “6-METHYLURACIL DERIVATIVES WITH ANTICHOLINESTERASE ACTIVITY AND THEIR USE” (priority 2021, published 2024)

What was measured:
[1] = system: transgenic mice of the B6C3-Tg(APP695)85Dbo Tg(PSENI)85Dbo genotype; conditions: 5 mg/kg daily intraperitoneal, RU patent No. 2565756; cited from earlier work
[2] = Solubility in water and organic solvents; type: physicochemical
[3] = system: mice of the CD-1 line; conditions: in mice, i.p.; prior-art free base; cited from earlier work
[4] = system: mice of the CD-1 line; test: General toxic effect (LD50) in mice; conditions: for LD50 (in mice, i.p.): intraperitoneal; for LD50 (in mice, p.o.): oral; for Times less toxic than donepezil hydrochloride, oral: ratio of LD50, administered orally; for Times less toxic than donepezil hydrochloride, intraperitoneal / Times less toxic than the free base: ratio of LD50, intraperitoneal
Protocol: Ed. A. N. Mironova] on mice of the CD-1 line (“Puschino” Nursery, Moscow Region), both males and females, weighing 19.0±2.0 g, kept on a standard diet in the day/night lighting regimen (12 hours) at 22° C.

[5] = system: transgenic mice with genotype B6C3-Tg(APP695)85Dbo Tg(PSENI)85Dbo; test: "Rewarded alternation" test in a T-maze, genetic model of Alzheimer's disease; type: in vivo; conditions: administered orally, compared with healthy animals
Source text: At the beginning of the research, the age of the transgenic mice was 9 months.
At the beginning of the research, the age of the transgenic mice was 8 months.

[6] = system: transgenic mice of the B6C3-Tg(APP695)85Dbo Tg(PSENI)85Dbo genotype; test: Number of amyloid plaques in the cortex, Thioflavin S staining of brain sections; type: in vivo; conditions: administered orally
Protocol: The line was purchased at The Jackson Laboratory (USA) and kept in the “Pushchino” nursery for laboratory animals Pushchino, Moscow Region). At the beginning of the research, the age of the transgenic mice was 9 months.
(§1) An equivalent amount of water (Water (Tg+)) was orally administered to control groups of transgenic mice.
Amyloid-beta deposits were evaluated after sacrifice on mouse brain sections (20 μm) using the Thioflavin S fluorescent dye and the Olympus BX51W1 fluorescence microscope, by the method described in the article [http://library.med.utah.edu/WebPath/histhtml/manuals/manuals.html].
The line was purchased at The Jackson Laboratory (USA) and kept in the “Pushchino” nursery for laboratory animals Pushchino, Moscow Region). At the beginning of the research, the age of the transgenic mice was 8 months.
as §1

| Compound | Reduction of the number of amyloid deposits in the cerebral cortex [1] [%] | Solubility [2] | LD50 (background statement) [3] [mg/kg] | LD50 (in mice, i.p.) [4] [mg/kg] | Correction of memory impairment [5] | LD50 (in mice, p.o.) [4] [mg/kg] | Times less toxic than donepezil hydrochloride, oral [4] [times] | Times less toxic than donepezil hydrochloride, intraperitoneal [4] [times] | Times less toxic than the free base [4] [times] | Effect on the number of amyloid plaques in the cortex [6] |
| --- | --- | --- | --- | --- | --- | --- | --- | --- | --- | --- |
| CCN(CCCCCn1c(C)cc(=O)n(CCCCCN(CC)Cc2ccccc2[N+](=O)[O-])c1=O)Cc1ccccc1[N+](=O)[O-] [1,3-bis[5-(ortho-nitrobenzyl-ethylamino)pentyl-1]-6-methyluracil, reference compound] | 50 | insoluble in water | 51.48 | 51 | – | – | – | – | – | – |
| CCN(CCCCCn1c(C)cc(=O)n(CCCCCN(CC)Cc2ccccc2[N+](=O)[O-])c1=O)Cc1ccccc1[N+](=O)[O-].Cl.Cl [Compound (2), 1,3-bis[5-(ortho-nitrobenzylethylamino)pentyl]-6-methyluracil dihydrochloride] | – | soluble in dimethylformamide, dimethyl sulfoxide, ethyl alcohol, and water | – | 150 | effective for correcting memory impairment | 290 | 6 | 30 | ~3 | more effective than donepezil hydrochloride for preventing the formation of amyloid plaques |
| Br.Br.CCN(CCCCCn1c(C)cc(=O)n(CCCCCN(CC)Cc2ccccc2[N+](=O)[O-])c1=O)Cc1ccccc1[N+](=O)[O-] [Compound (1), 1,3-bis[5-(ortho-nitrobenzylethylamino)pentyl]-6-methyluracil dihydrobromide] | – | soluble in chloroform, dimethylformamide, dimethyl sulfoxide, ethyl alcohol, and water | – | 199 | effective for correction of memory impairment | 520 | 12 | 40 | ~4 | more effective product for prevention of the formation of amyloid plaque than donepezil hydrochloride |
